# Data from BindingDB's records for doi:10.1021/jm040160b (Research Triangle Institute, 2005).
# Target: Neuronal acetylcholine receptor subunit alpha-4/beta-2 (Rattus norvegicus, UniProt P09483+P12390)
# Assay: Inhibition of [3H]epibatidine binding to Nicotinic acetylcholine receptor alpha4-beta2 in rat cerebral cortex
# Sequence of Neuronal acetylcholine receptor subunit alpha-4/beta-2 (P09483 whole entry): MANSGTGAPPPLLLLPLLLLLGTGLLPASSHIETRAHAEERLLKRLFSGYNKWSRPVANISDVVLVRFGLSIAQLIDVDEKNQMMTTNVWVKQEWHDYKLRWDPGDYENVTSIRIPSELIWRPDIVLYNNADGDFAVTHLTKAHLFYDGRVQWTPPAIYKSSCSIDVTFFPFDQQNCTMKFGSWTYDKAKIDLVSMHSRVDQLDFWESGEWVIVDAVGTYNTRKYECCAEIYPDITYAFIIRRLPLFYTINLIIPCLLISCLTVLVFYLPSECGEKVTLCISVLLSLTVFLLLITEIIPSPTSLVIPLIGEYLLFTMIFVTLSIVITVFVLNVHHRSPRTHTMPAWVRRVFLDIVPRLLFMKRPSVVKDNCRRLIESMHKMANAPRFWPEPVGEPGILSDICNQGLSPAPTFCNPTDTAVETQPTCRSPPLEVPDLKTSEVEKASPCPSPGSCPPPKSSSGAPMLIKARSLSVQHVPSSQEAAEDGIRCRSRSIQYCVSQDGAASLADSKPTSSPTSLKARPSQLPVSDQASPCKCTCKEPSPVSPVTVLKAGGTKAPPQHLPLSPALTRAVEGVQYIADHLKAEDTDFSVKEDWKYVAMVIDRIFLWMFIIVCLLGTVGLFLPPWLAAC
# Sequence of Neuronal acetylcholine receptor subunit alpha-4/beta-2 (P12390 whole entry): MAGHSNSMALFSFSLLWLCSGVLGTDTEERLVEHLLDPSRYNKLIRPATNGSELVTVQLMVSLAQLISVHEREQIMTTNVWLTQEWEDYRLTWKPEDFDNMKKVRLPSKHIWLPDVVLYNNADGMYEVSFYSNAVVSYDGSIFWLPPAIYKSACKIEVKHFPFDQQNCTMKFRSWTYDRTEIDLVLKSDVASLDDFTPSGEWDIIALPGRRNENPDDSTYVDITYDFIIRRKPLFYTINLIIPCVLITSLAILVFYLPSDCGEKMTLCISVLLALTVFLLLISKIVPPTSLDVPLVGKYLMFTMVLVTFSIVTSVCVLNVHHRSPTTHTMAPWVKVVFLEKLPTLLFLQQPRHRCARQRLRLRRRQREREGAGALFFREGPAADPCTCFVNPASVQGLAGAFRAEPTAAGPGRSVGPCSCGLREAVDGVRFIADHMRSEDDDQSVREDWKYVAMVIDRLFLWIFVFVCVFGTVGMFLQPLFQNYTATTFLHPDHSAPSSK
smiles,measurement,value
Clc1cncc(C2CC3CCC2N3)c1 (stereo unspecified) [2-(5-Chloro-pyridin-3-yl)-7-aza-bicyclo[2.2.1]heptane],Ki,0.06 nM
